Data: PMC3234597, “Two Panels of Steroid Receptor Luciferase Reporter Cell Lines for Compound Profiling” (Combinatorial Chemistry & High Throughput Screening, 2011)
Like-named read-outs stand apart in the source and are kept apart here.

Columns and labels:
Assay type in all cases: cell-based
[1] = biological target: T1, ERα^wt-LBD fused to Gal4-DBD (Homo sapiens, UniProt P03372); test: U2OS-ERα^wt-LBD/9xGal4UAS luciferase reporter cell line
T1 construct: ERα-LBD (amino acids 303-595) based on GenBank NM_000125; expressed in transfected cells; host or cells: U2OS
T1 sequence (P03372 303-595): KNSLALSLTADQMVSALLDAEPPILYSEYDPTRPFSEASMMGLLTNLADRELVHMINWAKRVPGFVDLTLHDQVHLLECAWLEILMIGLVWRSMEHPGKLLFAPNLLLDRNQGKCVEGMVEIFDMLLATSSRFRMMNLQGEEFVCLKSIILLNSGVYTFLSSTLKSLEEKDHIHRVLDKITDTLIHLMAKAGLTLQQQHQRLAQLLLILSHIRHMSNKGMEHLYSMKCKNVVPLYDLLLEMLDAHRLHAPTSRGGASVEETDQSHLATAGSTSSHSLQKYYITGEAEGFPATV

[2] = biological target: T2, human ERα (full-length) (Homo sapiens, UniProt P03372, G400V); test: U2OS-ERα/3xERE luciferase reporter cell line (full-length receptor)
T2 sequence (P03372 1-595 G400V): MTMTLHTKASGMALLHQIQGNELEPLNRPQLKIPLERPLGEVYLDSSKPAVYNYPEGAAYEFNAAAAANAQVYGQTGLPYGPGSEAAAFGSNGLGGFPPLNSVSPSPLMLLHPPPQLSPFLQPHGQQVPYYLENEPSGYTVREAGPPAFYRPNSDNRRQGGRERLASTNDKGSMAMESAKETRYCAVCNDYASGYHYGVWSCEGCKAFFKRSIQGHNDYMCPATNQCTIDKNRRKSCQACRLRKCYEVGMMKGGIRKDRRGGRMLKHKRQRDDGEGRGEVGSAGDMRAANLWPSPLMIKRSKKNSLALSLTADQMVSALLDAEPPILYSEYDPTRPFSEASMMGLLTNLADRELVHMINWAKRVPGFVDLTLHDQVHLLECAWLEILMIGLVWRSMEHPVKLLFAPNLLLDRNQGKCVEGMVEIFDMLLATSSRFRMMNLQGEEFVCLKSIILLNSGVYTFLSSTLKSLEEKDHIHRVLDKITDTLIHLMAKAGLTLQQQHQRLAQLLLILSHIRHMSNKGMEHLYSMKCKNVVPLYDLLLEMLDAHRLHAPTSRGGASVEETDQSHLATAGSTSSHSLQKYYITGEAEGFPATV

[3] = biological target: T3, human GR (full-length) (Homo sapiens, UniProt P04150); test: U2OS-GR/3xGRE luciferase reporter cell line (full-length receptor)
T3 construct: expression vectors encoding full-length steroid receptors: pcDNA3-hAR and pcDNA3-hGR; host or cells: U2OS
T3 sequence (P04150 1-777): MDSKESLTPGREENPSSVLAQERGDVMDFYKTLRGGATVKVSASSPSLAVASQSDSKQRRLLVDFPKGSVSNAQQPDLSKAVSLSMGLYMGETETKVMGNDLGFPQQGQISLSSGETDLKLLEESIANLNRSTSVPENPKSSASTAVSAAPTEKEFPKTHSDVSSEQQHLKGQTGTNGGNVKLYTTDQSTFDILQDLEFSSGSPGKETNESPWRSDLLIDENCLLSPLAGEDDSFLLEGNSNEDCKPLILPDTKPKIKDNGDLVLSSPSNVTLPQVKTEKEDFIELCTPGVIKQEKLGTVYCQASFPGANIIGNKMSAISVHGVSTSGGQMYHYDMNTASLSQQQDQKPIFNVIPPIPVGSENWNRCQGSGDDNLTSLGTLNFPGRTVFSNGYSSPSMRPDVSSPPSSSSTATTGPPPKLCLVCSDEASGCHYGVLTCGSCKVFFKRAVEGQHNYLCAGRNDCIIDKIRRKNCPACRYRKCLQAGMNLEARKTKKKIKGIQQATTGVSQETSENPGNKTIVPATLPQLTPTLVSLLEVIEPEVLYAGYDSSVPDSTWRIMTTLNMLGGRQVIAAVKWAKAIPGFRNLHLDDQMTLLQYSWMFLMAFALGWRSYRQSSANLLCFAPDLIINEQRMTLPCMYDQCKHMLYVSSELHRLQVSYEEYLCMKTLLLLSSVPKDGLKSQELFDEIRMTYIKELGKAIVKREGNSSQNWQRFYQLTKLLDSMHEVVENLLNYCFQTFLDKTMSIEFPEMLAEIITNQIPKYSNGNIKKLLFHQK

[4] = biological target: T4, GR-LBD fused to Gal4-DBD (Homo sapiens, UniProt P04150); test: U2OS-GR-LBD/9xGal4UAS luciferase reporter cell line
T4 construct: expressed in transfected cells; host or cells: U2OS
T4 sequence (P04150 524-758 limits assumed): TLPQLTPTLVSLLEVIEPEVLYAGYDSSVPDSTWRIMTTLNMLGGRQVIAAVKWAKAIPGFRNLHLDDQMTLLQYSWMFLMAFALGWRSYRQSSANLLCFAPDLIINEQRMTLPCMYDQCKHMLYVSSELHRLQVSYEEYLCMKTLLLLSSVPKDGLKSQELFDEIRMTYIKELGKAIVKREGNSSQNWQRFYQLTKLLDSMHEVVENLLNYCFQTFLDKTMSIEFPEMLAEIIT

[5] = biological target: T5, ERα^G420C-LBD fused to Gal4-DBD (Homo sapiens, UniProt P03372, G420C); test: U2OS-ERα^G420C-LBD/9xGal4UAS luciferase reporter cell line
T5 construct: expressed in transfected cells; host or cells: U2OS
T5 sequence (P03372 311-547 G420C limits assumed): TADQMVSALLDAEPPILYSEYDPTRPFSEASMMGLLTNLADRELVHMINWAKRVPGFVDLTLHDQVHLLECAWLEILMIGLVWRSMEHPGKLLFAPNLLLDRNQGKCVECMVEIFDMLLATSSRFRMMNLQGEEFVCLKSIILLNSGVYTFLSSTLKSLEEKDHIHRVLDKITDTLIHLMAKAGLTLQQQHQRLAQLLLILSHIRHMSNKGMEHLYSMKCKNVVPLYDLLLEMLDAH

[6] = biological target: T3, human GR (full-length); test: U2OS-GR/MMTV luciferase reporter cell line (full-length receptor)
[7] = biological target: T6, MR-LBD fused to Gal4-DBD (Homo sapiens, UniProt P08235); test: U2OS-MR-LBD/9xGal4UAS luciferase reporter cell line; details: read-out: Log EC50 (converted)
T6 construct: MR-LBD was cloned by RT-PCR from total RNA isolated from HEK293 cells; expressed in transfected cells; host or cells: U2OS
T6 sequence (P08235 726-964 limits assumed): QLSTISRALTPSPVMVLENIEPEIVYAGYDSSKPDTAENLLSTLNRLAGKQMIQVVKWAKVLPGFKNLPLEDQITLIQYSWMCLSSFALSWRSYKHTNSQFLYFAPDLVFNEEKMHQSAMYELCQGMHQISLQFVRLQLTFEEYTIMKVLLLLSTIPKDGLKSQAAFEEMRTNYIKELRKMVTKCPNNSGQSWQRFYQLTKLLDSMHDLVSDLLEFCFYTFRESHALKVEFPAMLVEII

[8] = biological target: T7, ERβ-LBD fused to Gal4-DBD (Homo sapiens, UniProt Q92731); test: U2OS-ERβ-LBD/9xGal4UAS luciferase reporter cell line; details: read-out: Log EC50 (converted)
T7 construct: region comprising ERβ-LBD and a piece of the hinge region; expressed in transfected cells; host or cells: U2OS
T7 sequence (Q92731 264-498 limits assumed): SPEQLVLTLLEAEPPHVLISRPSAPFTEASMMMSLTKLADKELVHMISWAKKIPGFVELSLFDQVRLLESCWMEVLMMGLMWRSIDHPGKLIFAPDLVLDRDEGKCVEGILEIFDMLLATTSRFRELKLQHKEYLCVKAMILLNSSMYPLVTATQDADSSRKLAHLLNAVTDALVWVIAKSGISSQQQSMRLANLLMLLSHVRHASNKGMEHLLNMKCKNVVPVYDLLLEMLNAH

[9] = biological target: T8, human MR (full-length) (Homo sapiens, UniProt P08235); test: U2OS-MR/MMTV luciferase reporter cell line (full-length receptor); details: read-out: Log EC50 (converted)
T8 construct: expression vectors encoding full-length steroid receptors: pcDNA3-hAR, pcDNA3-hGR and pcDNA3-hMR; expressed in transfected cells; host or cells: U2OS
T8 sequence (P08235 1-984): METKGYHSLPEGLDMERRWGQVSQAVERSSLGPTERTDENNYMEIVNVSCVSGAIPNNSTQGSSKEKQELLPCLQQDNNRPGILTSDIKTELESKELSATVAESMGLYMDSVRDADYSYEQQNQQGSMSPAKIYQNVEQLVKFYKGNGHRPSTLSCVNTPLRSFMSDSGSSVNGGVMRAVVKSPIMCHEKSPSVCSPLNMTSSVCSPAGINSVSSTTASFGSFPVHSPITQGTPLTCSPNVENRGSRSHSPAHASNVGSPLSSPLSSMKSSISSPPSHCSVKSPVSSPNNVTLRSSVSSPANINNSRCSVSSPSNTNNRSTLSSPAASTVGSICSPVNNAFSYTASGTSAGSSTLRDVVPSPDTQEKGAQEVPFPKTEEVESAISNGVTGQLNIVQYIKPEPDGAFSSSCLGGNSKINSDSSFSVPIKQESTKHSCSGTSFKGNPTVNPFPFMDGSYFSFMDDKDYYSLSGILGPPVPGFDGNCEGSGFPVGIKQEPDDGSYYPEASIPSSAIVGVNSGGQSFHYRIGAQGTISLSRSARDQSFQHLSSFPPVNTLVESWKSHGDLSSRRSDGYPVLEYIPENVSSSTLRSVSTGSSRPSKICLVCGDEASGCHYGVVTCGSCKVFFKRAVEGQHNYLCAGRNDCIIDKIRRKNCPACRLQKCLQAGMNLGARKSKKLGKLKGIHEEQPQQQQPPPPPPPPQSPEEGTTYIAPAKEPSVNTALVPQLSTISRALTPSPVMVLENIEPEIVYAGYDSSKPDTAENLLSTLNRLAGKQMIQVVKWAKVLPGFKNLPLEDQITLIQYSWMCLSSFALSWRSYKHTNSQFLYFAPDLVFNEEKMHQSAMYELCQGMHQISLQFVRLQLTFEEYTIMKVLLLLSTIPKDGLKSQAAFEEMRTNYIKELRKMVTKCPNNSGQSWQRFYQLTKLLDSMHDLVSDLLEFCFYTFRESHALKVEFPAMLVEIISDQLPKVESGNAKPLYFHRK

[10] = biological target: T9, human ERβ (full-length) (Homo sapiens, UniProt Q92731); test: U2OS-ERβ/3xERE luciferase reporter cell line (full-length receptor); details: read-out: Log EC50 (converted)
T9 construct: expression vectors encoding full-length steroid receptors: pcDNA3-hERα and pcDNA3-ERβ; expressed in transfected cells; host or cells: U2OS
T9 sequence (Q92731 whole entry): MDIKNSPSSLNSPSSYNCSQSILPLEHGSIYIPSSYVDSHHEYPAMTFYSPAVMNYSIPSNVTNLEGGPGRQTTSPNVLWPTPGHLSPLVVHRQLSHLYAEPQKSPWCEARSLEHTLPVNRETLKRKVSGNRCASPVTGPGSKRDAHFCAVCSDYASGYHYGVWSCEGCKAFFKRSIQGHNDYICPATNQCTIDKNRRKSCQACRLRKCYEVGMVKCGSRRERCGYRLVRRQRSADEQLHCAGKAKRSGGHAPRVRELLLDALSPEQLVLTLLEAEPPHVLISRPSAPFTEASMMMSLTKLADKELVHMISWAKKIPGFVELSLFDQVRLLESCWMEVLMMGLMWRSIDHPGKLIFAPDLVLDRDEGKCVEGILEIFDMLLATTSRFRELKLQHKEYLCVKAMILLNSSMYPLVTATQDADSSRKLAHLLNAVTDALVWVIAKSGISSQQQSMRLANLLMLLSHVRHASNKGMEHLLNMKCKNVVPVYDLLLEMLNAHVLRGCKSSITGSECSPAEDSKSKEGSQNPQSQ

[11] = biological target: T10, PR-LBD fused to Gal4-DBD (Homo sapiens, UniProt P06401); test: U2OS-PR-LBD/9xGal4UAS luciferase reporter cell line
T10 construct: PR-LBD region was PCR amplified using the following primer combination; host or cells: U2OS
T10 sequence (P06401 679-913 limits assumed): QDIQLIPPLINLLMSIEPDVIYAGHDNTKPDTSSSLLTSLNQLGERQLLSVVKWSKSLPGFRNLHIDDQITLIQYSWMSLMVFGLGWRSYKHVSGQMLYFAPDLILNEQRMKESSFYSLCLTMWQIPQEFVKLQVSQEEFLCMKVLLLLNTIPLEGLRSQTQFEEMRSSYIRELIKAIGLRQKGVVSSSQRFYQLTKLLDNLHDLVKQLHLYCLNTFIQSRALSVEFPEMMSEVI

CC(=O)S[C@@H]1CC2=CC(=O)CC[C@]2(C)[C@H]2CC[C@@]3(C)[C@@H](CC[C@@]34CCC(=O)O4)[C@H]12 [Spironolactone, spironolactone]
> 10 µM: EC50 [1] | EC50 ([2]; Log EC50, agonist mode, ERα/3xERE, 20 h, value is log10 of molar EC50, mean ± SEM) | EC50 [3] | EC50 [4] | EC50 [5] | EC50 [6]

CC(C)C(=O)Nc1ccc([N+](=O)[O-])c(C(F)(F)F)c1 [Flutamide, flutamide]
> 10 µM: EC50 [7] | EC50 [1] | EC50 [8] | EC50 [2] | EC50 [9] | EC50 [10] | IC50 ([11]; antagonist mode, PR-LBD/9xGal4UAS, log10 of molar IC50, mean ± SEM, read-out: Log IC50 (converted)) | EC50 ([11]; read-out: Log EC50 (converted)) | EC50 [5]
